Reference: PMC9181014, “De Novo Development of Mitochondria-Targeted Molecular Probes Targeting Pink1” (International Journal of Molecular Sciences, 2022)
Numbered stars: 1 amine (or outer) side, 2 acyl side, 3 side chain; on linkers, the order of the positions; unused ones are H or OH. Bridge positions count the residues as written; N and C are the ends. Ends that are not written are not given here. Peptide text beside a SMILES is read from it. Suc = O=C(CCC(=O)[*:2])[*:1]

T1: Tribolium castaneum Pink1 (TcPink1) (Tribolium castaneum, UniProt D6WMX4 6-570)
T1 construct: No cleavage of MBP is described; also called pMal4c Pink1 (Tribolium castaneum) DU34701; not shown: MBP (from the vector pMal4c)
T1 sequence (looked up): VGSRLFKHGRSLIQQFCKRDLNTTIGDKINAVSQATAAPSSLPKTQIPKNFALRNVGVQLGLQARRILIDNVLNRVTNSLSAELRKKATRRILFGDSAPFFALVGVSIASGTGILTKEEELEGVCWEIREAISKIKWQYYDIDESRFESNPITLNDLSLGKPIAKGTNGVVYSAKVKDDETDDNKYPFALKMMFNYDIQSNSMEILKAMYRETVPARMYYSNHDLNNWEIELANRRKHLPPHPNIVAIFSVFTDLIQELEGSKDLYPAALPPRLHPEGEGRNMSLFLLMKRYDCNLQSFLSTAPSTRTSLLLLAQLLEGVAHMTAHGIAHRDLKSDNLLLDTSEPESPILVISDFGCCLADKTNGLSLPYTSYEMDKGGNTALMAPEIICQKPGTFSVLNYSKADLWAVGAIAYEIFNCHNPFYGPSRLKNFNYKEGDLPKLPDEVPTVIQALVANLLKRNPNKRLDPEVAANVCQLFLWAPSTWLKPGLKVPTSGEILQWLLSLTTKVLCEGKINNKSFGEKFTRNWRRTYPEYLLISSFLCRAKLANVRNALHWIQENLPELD


Experiments:
TcPink1 [1] = biological target: T2, TcPink1 (Tribolium castaneum, UniProt D6WMX4); experiment: Peptide binding to immobilized protein in vitro, field-effect biosensing (FEB); conditions: AGILE Dev Kit graphene biosensor chip, protein 500 nM immobilized by EDC/sulfo-NHS, analyte 50 µL in PBS pH 7.4, Hill fit, mean ± SEM, read-out: KD of the peptides binding to TcPink1
T2 construct: host or cells: E. coli Rosetta (DE3)
Protocol: In brief: Protein was immobilized/cross-linked into the carboxyl group present on the activated graphene biosensor chip. The analyte is applied in solution to the chip and when an interaction occurs, an alteration in the current (I) is measured and recorded in real-time throughout the experiment. The entire cycle of the experiment starts with calibration using PBS (pH 7.4) to record the baseline equilibration response. Followed by the association step by adding analyte (50 µL) at the desired concentrations in PBS (pH 7.4). After the experiment, data at the concentration points of the analytes were exported from 3 transistors, averaged, and any background drift recorded in PBS was subtracted.
Binding data of the peptides to immobilized protein in vitro was gathered using an AGILE Dev Kit label-free binding assay (Cardea, San Diego, CA, USA). […] After a rinse in PBS, base-line current levels for the chip were recorded for at least 5 min. Next, the PBS was aspirated, and a droplet of the tested analyte (50 μL) was applied to the chip and the change in the sensor chip readout was recorded, after that the analyte was aspirated and the chip was rinsed with PBS. […] After data were gathered, the responses of the sensors on a single assay chip were averaged, and any background drift recorded in PBS was subtracted. […] The KD values were calculated by GraghPad Prism 9, statistical analysis software. […]

trypsin [2] = biological target: T3, trypsin (Sus scrofa, UniProt P00761); experiment: Stability of peptides under tryptic degradation, HPLC; assay type: in vitro ADME; conditions: pig, trypsin from porcine pancreas, porcine pancreas trypsin (1 µL of 1 mg/mL), peptide 2 mg in 800 µL 50 mM Tris pH 8.0, 37 °C, RP-HPLC, 214 nm, relative to time zero, n = 3; for metabolised at 0.5 h, 2.5 mg/mL: 30 min, read-out: Degradation of the peptide by trypsin after 30 min
T3 construct: purchased Sigma-Aldrich; host or cells: porcine pancreas
Protocol: (§1) We tested the stability of the peptides using trypsin, an endopeptidase with specificity for cleaving the amide bond between a cationic amino acid and the next amino acid in the C-terminal direction, which is found in the digestive systems of many vertebrates, and it is commonly used as an important enzymatic reagent in biochemistry and biology.
(§2) The stability of the peptides was measured independently under tryptic degradation at 37 °C (by trypsin degradation of the peptide) and was determined by HPLC analysis (for more experimental details, see “Materials and Methods”) (n = 3). The starting time point (0 min, 100%) represents the peptide at the beginning of each experiment. […] Separation was performed by HPLC in the presence of 0.1% trifluoroacetic acid and detected by absorbance at 214 nm. Peptide amounts were calculated relative to the quantities determined at time point zero.
(§3) In brief: The stability studies of the peptides were performed by dissolving the peptides in Tris buffer and incubating them with trypsin solution at 37 °C using HPLC.
(§4) Further details: Trypsin from porcine pancreas was purchased from Sigma-Aldrich (Saint Louis, MO, USA). Peptide (2 mg) was dissolved in Tris buffer (800 µL, 50 mM (pH 8.0)). The peptide solution was mixed with 1 μL of trypsin solution (1 mg/mL in 50 mM Tris buffer (pH 8.0)). The peptide was incubated at 37 °C and samples (90 μL) were taken at 0, 5, 30, 60, and 120 min. The samples were mixed with TFA/CH3CN/H2O (2%/5%/93%, 90 µL). The peptides were analyzed by analytical reverse-phase high-pressure liquid chromatography (RP-HPLC) 1260 Infinity II LC System from Agilent, (Santa Clara, CA, USA) using a Luna 5 μm C18(2) 100 Å (250 × 4.6 mm) column (Phenomenex, Torrance, CA, USA) at 1 mL/min. The solvent systems used were A (H2O with 0.1% TFA) and B (CH3CN with 0.1% TFA). A linear gradient of 5–50% B in 15 min was applied, and the detection was at 214 nm and 254 nm.

trypsin [3] = tested on: T4, trypsin; experiment: as above; assay type: in vitro ADME; conditions: pig, trypsin from porcine pancreas; porcine pancreas trypsin (1 µL of 1 mg/mL); peptide 2 mg in 800 µL 50 mM Tris pH 8.0; 37 °C; 120 min; RP-HPLC, 214 nm; relative to time zero; n = 3; read-out: Degradation of the peptide by trypsin after 120 min
T4 construct: purchased Sigma-Aldrich; host or cells: porcine pancreas
Protocol: as §1, §2, §3, §4

TcPink1 [4] = biological target: T2, TcPink1; experiment: Cross-linking coupled with mass spectrometry (CLMS), BS3 cross-linker; assay type: binding; conditions: BS3 cross-link CVP198 to CVP198 (residue 11 to residue 11), self cross-link in the CVP198 + tcPINK1 sample
Protocol: (§5) Here, two water-soluble cross-linkers were used for the CLMS: 4-(4,6-dimethoxy-1,3,5-triazin-2-yl)-4-methyl-morpholinium chloride (DMTMM), and bis(sulfosuccinimidyl)suberate (BS3). DMTMM is a hetero-bifunctional amine-to-carboxylic acid crosslinker, and BS3 is a homo-bifunctional amine-to-amine crosslinker, which reacts primarily with the ε-amino group of lysine residues in proteins.
(§6) In brief: The recombinant protein and the peptide were incubated together with a crosslinker. The reaction was stopped with a quencher. The proteins were precipitated collected and trypsinased, the outcome was analysed by liquid chromatography mass spectrometry (LCMS).
(§7) A mixture solution of purified protein and peptide was prepared in HEPES buffer (50 mM HEPES, 150 mM NaCl (pH 8.0)). Protein TcPink1’s final concentration was 10 μM and hPink1’s final concentration was 2 μM. The peptide was added at a 1:10 or 1:100 protein-to-peptide ratio, and the mixture incubated with agitation for 20 min at room temperature. For BS3 cross-linking, a solution of BS3 in DMSO (150 mM) was used, which was diluted with the proteins to a final BS3 concentration of 1 mM. The cross-linking reaction was incubated at room temperature for 30 min with agitation. The reaction was quenched by adding ammonium bicarbonate to a final concentration of 30 mM.

TcPink1 [5] = biological target: T2, TcPink1; experiment: Cross-linking coupled with mass spectrometry (CLMS), DMTMM cross-linker; assay type: binding; conditions: DMTMM cross-link CVP198-CVP198 (both partners the peptide), in the CVP-198 + tcPINK1 sample
Protocol: as §5, §6, §7

[6] = biological target: T1, Tribolium castaneum Pink1 (TcPink1); experiment: field-effect biosensing (FEB); TcPink1 (500 nM) covalently immobilised by EDC/sulfo-NHS on a graphene biosensor chip (AGILE Dev Kit, Cardea); peptides as analyte in PBS pH 7.4 at varying concentrations; Hill fit for KD; conditions: both partners purified

T3 sequence (P00761 9-231): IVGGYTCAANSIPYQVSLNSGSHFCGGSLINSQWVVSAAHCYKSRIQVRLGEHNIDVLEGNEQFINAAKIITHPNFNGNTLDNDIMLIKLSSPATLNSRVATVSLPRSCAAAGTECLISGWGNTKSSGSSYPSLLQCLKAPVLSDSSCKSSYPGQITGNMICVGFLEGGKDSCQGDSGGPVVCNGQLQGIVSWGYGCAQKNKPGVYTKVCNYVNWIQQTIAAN

Row | Molecule | Kd (TcPink1 [1]) [µM] | metabolised at 0.5 h, 2.5 mg/mL (trypsin [2]) [%] | metabolised at 2 h, 2.5 mg/mL (trypsin [3]) [%] | metabolised at 2 h, 2.5 mg/mL (trypsin [2]; 120 min, read-out: Degradation of the peptide by trypsin after 120 min) [%] | XL fragmentation score (TcPink1 [4]) | XL fragmentation score (TcPink1 [5]) | Kd [6] [µM]
1 | CSCC[C@@H]1NC(=O)[C@H](CCCNC(=N)N)NC(=O)[C@H](CCC(N)=O)NC(=O)[C@H](CC(C)C)NC(=O)CNC(=O)CCC(=O)NCCCC[C@@H](C(=O)NCC(=O)NCC(=O)N[C@@H](Cc2ccc(O)cc2)C(=O)NCC(=O)N[C@@H](CCCNC(=N)N)C(=O)N[C@@H](CCCCN)C(=O)N[C@@H](CCCCN)C(=O)N[C@@H](CCCNC(=N)N)C(=O)N[C@@H](CCCNC(=N)N)C(=O)N[C@@H](CCC(N)=O)C(=O)N[C@@H](CCCNC(=N)N)C(=O)N[C@@H](CCCNC(=N)N)C(=O)N[C@@H](CCCNC(=N)N)C(N)=O)NC(=O)[C@H](CC(C)C)NC(=O)[C@H](CC(=O)O)NC(=O)[C@H](C(C)C)NC(=O)[C@H](CC(C)C)NC(=O)[C@H](C(C)C)NC1=O [CVP-199] (GLQRMVLVDLKGGYGRKKRRQRRR-NH2; linker N-11 via Suc) | 58.31 ± 0.02 | 45 | < 75 |  |  |  | 
2 | Ac-GLQRMVLVDLKGGYGRKKRRQRRR-NH2 [CVP-198] | 130.47 ± 0.01 | ~70 |  | ~95 | 1 | 0.74 | 
3 | GLQRMVLVDLKGGYGRKKRRQRRR-NH2 (also: backbone cyclic: spacer on N-terminal amine linked to side chain of added lysine, that lysine's position not given here, linker at N via dicarboxylic acid spacer (n = 3), other end not in the chain) [CVP-200, backbone cyclic peptide (n = 3, bridge size 10, ring size 42)] |  |  |  |  |  |  | 139
